# Numbers after ± are expanded uncertainties.
# Assay: xn = mol fraction of the nth substance listed
# Conditions: Liquid, Vibrating tube method
structure (smiles),measurement,setting,value
"Cc1ccc(C)cc1 [1,4-dimethylbenzene] + CCCCCCCCCC",mass density,"288.15 K, 100 kPa, x2 = 0.0513",854 ± 4 kg/m3
same,mass density,"288.15 K, 100 kPa, x2 = 0.0971",845.3 ± 4 kg/m3
same,mass density,"288.15 K, 100 kPa, x2 = 0.1962",828.2 ± 4 kg/m3
same,mass density,"288.15 K, 100 kPa, x2 = 0.2932",812.1 ± 4 kg/m3
same,mass density,"288.15 K, 100 kPa, x2 = 0.3942",799.8 ± 4 kg/m3
same,mass density,"288.15 K, 100 kPa, x2 = 0.4987",784.1 ± 4 kg/m3
same,mass density,"288.15 K, 100 kPa, x2 = 0.5563",777.2 ± 4 kg/m3
same,mass density,"288.15 K, 100 kPa, x2 = 0.5965",773.9 ± 4 kg/m3
same,mass density,"288.15 K, 100 kPa, x2 = 0.7018",761 ± 4 kg/m3
same,mass density,"288.15 K, 100 kPa, x2 = 0.8047",750.8 ± 4 kg/m3
same,mass density,"288.15 K, 100 kPa, x2 = 0.8975",741 ± 4 kg/m3
same,mass density,"288.15 K, 100 kPa, x2 = 0.9474",738 ± 4 kg/m3
same,mass density,"288.15 K, 5000 kPa, x2 = 0.0513",858 ± 4 kg/m3
same,mass density,"288.15 K, 5000 kPa, x2 = 0.0971",849.4 ± 4 kg/m3
same,mass density,"288.15 K, 5000 kPa, x2 = 0.1962",831.6 ± 4 kg/m3
same,mass density,"288.15 K, 5000 kPa, x2 = 0.2932",815.9 ± 4 kg/m3
same,mass density,"288.15 K, 5000 kPa, x2 = 0.3942",803.5 ± 4 kg/m3
same,mass density,"288.15 K, 5000 kPa, x2 = 0.4987",787.7 ± 4 kg/m3
same,mass density,"288.15 K, 5000 kPa, x2 = 0.5563",780.7 ± 4 kg/m3
same,mass density,"288.15 K, 5000 kPa, x2 = 0.5965",777 ± 4 kg/m3
same,mass density,"288.15 K, 5000 kPa, x2 = 0.7018",764.7 ± 4 kg/m3
same,mass density,"288.15 K, 5000 kPa, x2 = 0.8047",754.4 ± 4 kg/m3
same,mass density,"288.15 K, 5000 kPa, x2 = 0.8975",745.1 ± 4 kg/m3
same,mass density,"288.15 K, 5000 kPa, x2 = 0.9474",741.8 ± 4 kg/m3
same,mass density,"288.15 K, 10000 kPa, x2 = 0.0513",861.4 ± 4 kg/m3
same,mass density,"288.15 K, 10000 kPa, x2 = 0.0971",852.8 ± 4 kg/m3
same,mass density,"288.15 K, 10000 kPa, x2 = 0.1962",835 ± 4 kg/m3
same,mass density,"288.15 K, 10000 kPa, x2 = 0.2932",819.4 ± 4 kg/m3
same,mass density,"288.15 K, 10000 kPa, x2 = 0.3942",806.9 ± 4 kg/m3
same,mass density,"288.15 K, 10000 kPa, x2 = 0.4987",791.4 ± 4 kg/m3
same,mass density,"288.15 K, 10000 kPa, x2 = 0.5563",784.2 ± 4 kg/m3
same,mass density,"288.15 K, 10000 kPa, x2 = 0.5965",779.5 ± 4 kg/m3
same,mass density,"288.15 K, 10000 kPa, x2 = 0.7018",768.4 ± 4 kg/m3
same,mass density,"288.15 K, 10000 kPa, x2 = 0.8047",757.9 ± 4 kg/m3
same,mass density,"288.15 K, 10000 kPa, x2 = 0.8975",748.6 ± 4 kg/m3
same,mass density,"288.15 K, 10000 kPa, x2 = 0.9474",745.2 ± 4 kg/m3
same,mass density,"288.15 K, 20000 kPa, x2 = 0.0513",867.9 ± 4 kg/m3
same,mass density,"288.15 K, 20000 kPa, x2 = 0.0971",859.2 ± 4 kg/m3
same,mass density,"288.15 K, 20000 kPa, x2 = 0.1962",841.5 ± 4 kg/m3
same,mass density,"288.15 K, 20000 kPa, x2 = 0.2932",825.7 ± 4 kg/m3
same,mass density,"288.15 K, 20000 kPa, x2 = 0.3942",813.5 ± 4 kg/m3
same,mass density,"288.15 K, 20000 kPa, x2 = 0.4987",797.7 ± 4 kg/m3
same,mass density,"288.15 K, 20000 kPa, x2 = 0.5563",790.8 ± 4 kg/m3
same,mass density,"288.15 K, 20000 kPa, x2 = 0.5965",786 ± 4 kg/m3
same,mass density,"288.15 K, 20000 kPa, x2 = 0.7018",774.8 ± 4 kg/m3
same,mass density,"288.15 K, 20000 kPa, x2 = 0.8047",764.3 ± 4 kg/m3
same,mass density,"288.15 K, 20000 kPa, x2 = 0.8975",755.6 ± 4 kg/m3
same,mass density,"288.15 K, 20000 kPa, x2 = 0.9474",751.5 ± 4 kg/m3
same,mass density,"288.15 K, 30000 kPa, x2 = 0.0513",873.8 ± 4 kg/m3
same,mass density,"288.15 K, 30000 kPa, x2 = 0.0971",865 ± 4 kg/m3
same,mass density,"288.15 K, 30000 kPa, x2 = 0.1962",847.4 ± 4 kg/m3
same,mass density,"288.15 K, 30000 kPa, x2 = 0.2932",831.8 ± 4 kg/m3
same,mass density,"288.15 K, 30000 kPa, x2 = 0.3942",819.4 ± 4 kg/m3
same,mass density,"288.15 K, 30000 kPa, x2 = 0.4987",803.8 ± 4 kg/m3
same,mass density,"288.15 K, 30000 kPa, x2 = 0.5563",796.7 ± 4 kg/m3
same,mass density,"288.15 K, 30000 kPa, x2 = 0.5965",792 ± 4 kg/m3
same,mass density,"288.15 K, 30000 kPa, x2 = 0.7018",780.7 ± 4 kg/m3
same,mass density,"288.15 K, 30000 kPa, x2 = 0.8047",770.4 ± 4 kg/m3
same,mass density,"288.15 K, 30000 kPa, x2 = 0.8975",761.9 ± 4 kg/m3
same,mass density,"288.15 K, 30000 kPa, x2 = 0.9474",757.6 ± 4 kg/m3
same,mass density,"288.15 K, 40000 kPa, x2 = 0.0513",879.5 ± 4 kg/m3
same,mass density,"288.15 K, 40000 kPa, x2 = 0.0971",870.8 ± 4 kg/m3
same,mass density,"288.15 K, 40000 kPa, x2 = 0.1962",853.3 ± 4 kg/m3
same,mass density,"288.15 K, 40000 kPa, x2 = 0.2932",837.6 ± 4 kg/m3
same,mass density,"288.15 K, 40000 kPa, x2 = 0.3942",825.1 ± 4 kg/m3
same,mass density,"288.15 K, 40000 kPa, x2 = 0.4987",809.4 ± 4 kg/m3
same,mass density,"288.15 K, 40000 kPa, x2 = 0.5563",802.5 ± 4 kg/m3
same,mass density,"288.15 K, 40000 kPa, x2 = 0.5965",798.1 ± 4 kg/m3
same,mass density,"288.15 K, 40000 kPa, x2 = 0.7018",786.3 ± 4 kg/m3
same,mass density,"288.15 K, 40000 kPa, x2 = 0.8047",776 ± 4 kg/m3
same,mass density,"288.15 K, 40000 kPa, x2 = 0.8975",768.1 ± 4 kg/m3
same,mass density,"288.15 K, 40000 kPa, x2 = 0.9474",763.2 ± 4 kg/m3
same,mass density,"298.15 K, 100 kPa, x2 = 0.0513",845.7 ± 4 kg/m3
same,mass density,"298.15 K, 100 kPa, x2 = 0.0971",837.1 ± 4 kg/m3
same,mass density,"298.15 K, 100 kPa, x2 = 0.1962",819.6 ± 4 kg/m3
same,mass density,"298.15 K, 100 kPa, x2 = 0.2932",804 ± 4 kg/m3
same,mass density,"298.15 K, 100 kPa, x2 = 0.3942",791.6 ± 4 kg/m3
same,mass density,"298.15 K, 100 kPa, x2 = 0.4987",776 ± 4 kg/m3
same,mass density,"298.15 K, 100 kPa, x2 = 0.5563",769 ± 4 kg/m3
same,mass density,"298.15 K, 100 kPa, x2 = 0.5965",765 ± 4 kg/m3
same,mass density,"298.15 K, 100 kPa, x2 = 0.7018",753.2 ± 4 kg/m3
same,mass density,"298.15 K, 100 kPa, x2 = 0.8047",742.9 ± 4 kg/m3
same,mass density,"298.15 K, 100 kPa, x2 = 0.8975",734.6 ± 4 kg/m3
same,mass density,"298.15 K, 100 kPa, x2 = 0.9474",730.4 ± 4 kg/m3
same,mass density,"298.15 K, 5000 kPa, x2 = 0.0513",850.1 ± 4 kg/m3
same,mass density,"298.15 K, 5000 kPa, x2 = 0.0971",841.3 ± 4 kg/m3
same,mass density,"298.15 K, 5000 kPa, x2 = 0.1962",823.7 ± 4 kg/m3
same,mass density,"298.15 K, 5000 kPa, x2 = 0.2932",808.2 ± 4 kg/m3
same,mass density,"298.15 K, 5000 kPa, x2 = 0.3942",795.8 ± 4 kg/m3
same,mass density,"298.15 K, 5000 kPa, x2 = 0.4987",780.5 ± 4 kg/m3
same,mass density,"298.15 K, 5000 kPa, x2 = 0.5563",773.4 ± 4 kg/m3
same,mass density,"298.15 K, 5000 kPa, x2 = 0.5965",768.7 ± 4 kg/m3
same,mass density,"298.15 K, 5000 kPa, x2 = 0.7018",757.6 ± 4 kg/m3
same,mass density,"298.15 K, 5000 kPa, x2 = 0.8047",747.2 ± 4 kg/m3
same,mass density,"298.15 K, 5000 kPa, x2 = 0.8975",738.6 ± 4 kg/m3
same,mass density,"298.15 K, 5000 kPa, x2 = 0.9474",734.6 ± 4 kg/m3
same,mass density,"298.15 K, 10000 kPa, x2 = 0.0513",853.3 ± 4 kg/m3
same,mass density,"298.15 K, 10000 kPa, x2 = 0.0971",844.4 ± 4 kg/m3
same,mass density,"298.15 K, 10000 kPa, x2 = 0.1962",827 ± 4 kg/m3
same,mass density,"298.15 K, 10000 kPa, x2 = 0.2932",811.4 ± 4 kg/m3
same,mass density,"298.15 K, 10000 kPa, x2 = 0.3942",799.2 ± 4 kg/m3
same,mass density,"298.15 K, 10000 kPa, x2 = 0.4987",783.6 ± 4 kg/m3
same,mass density,"298.15 K, 10000 kPa, x2 = 0.5563",776.7 ± 4 kg/m3
same,mass density,"298.15 K, 10000 kPa, x2 = 0.5965",771.9 ± 4 kg/m3
same,mass density,"298.15 K, 10000 kPa, x2 = 0.7018",760.8 ± 4 kg/m3
same,mass density,"298.15 K, 10000 kPa, x2 = 0.8047",750.5 ± 4 kg/m3
same,mass density,"298.15 K, 10000 kPa, x2 = 0.8975",741.8 ± 4 kg/m3
same,mass density,"298.15 K, 10000 kPa, x2 = 0.9474",738 ± 4 kg/m3
